From ChEMBL document CHEMBL1781882, “Neuroprotective effects of furopyrazole derivative of benzylindazole analogs on C2 ceramide-induced apoptosis in cultured cortical neurons” (Bioorg Med Chem Lett, 2009) come the findings set out here.

Active and inactive are the calls of the source. The calls are words filed in the database; no cut-off is given here.

For data set [1], the system named is Cortical neurone. The data set is described as follows: Neuroprotective activity in Sprague-Dawley rat cortical neurons assessed as reduction in C2 ceramide-induced cell death treated for 2 hrs followed by challenged with C2 ceramide for 24 hrs by MTT assay. Type of data set: functional.
Data set [2] can be described thus: Neuroprotective activity in Sprague-Dawley rat cortical neurons assessed as reduction in C2 ceramide-induced cell death measured as cell survival at 1 uM for 2 hrs followed by challenged with C2 ceramide for 24 hrs by MTT assay. Type of data set: functional, Cortical neurone. Background: Tetrazolium assays rely on reduction of a dye to a coloured formazan, in cell work by metabolically active cells.

The nature of data set [3]: Neuroprotective activity in Sprague-Dawley rat cortical neurons assessed as reduction in C2 ceramide-induced cell death measured as cell survival at 2.5 uM for 2 hrs followed by challenged with C2 ceramide for 24 hrs by MTT assay. Format: functional, Cortical neurone.
The nature of data set [4]: Neuroprotective activity in Sprague-Dawley rat cortical neurons assessed as reduction in C2 ceramide-induced cell death measured as cell survival at 5 uM for 2 hrs followed by challenged with C2 ceramide for 24 hrs by MTT assay. Type of data set: functional, Cortical neurone.
Data set [5] can be described thus: Neuroprotective activity in Sprague-Dawley rat cortical neurons assessed as reduction in C2 ceramide-induced cell death measured as cell survival at 10 uM for 2 hrs followed by challenged with C2 ceramide for 24 hrs by MTT assay. Format: functional, Cortical neurone.
Data set [6] deals with Cortical neurone. In words: Neuroprotective activity in Sprague-Dawley rat cortical neurons assessed as reduction in C2 ceramide-induced cell death at 30 uM for 2 hrs followed by challenged with C2 ceramide for 24 hrs by MTT assay. Format: functional.
The test system of data set [7] is Cortical neurone. In words: Neuroprotective activity in Sprague-Dawley rat cortical neurons assessed as attenuation of C2 ceramide-induced apoptosis at 10 uM challenged with C2 ceramide for 24 hrs by Hoechst 33258 staining. Type of data set: functional.
A short description of data set [8]: Neuroprotective activity in Sprague-Dawley rat cortical neurons assessed as reduction in C2 ceramide-induced cell death measured as cell survival at 10 uM for 2 hrs followed by challenged with C2 ceramide for 24 hrs by MTT assay in presence of U0126 ERK1/2 inhibitor (reference value: 100.2 +/- 1.7%). Format: functional, Cortical neurone.
Data set [9] is described as follows: Neuroprotective activity in Sprague-Dawley rat cortical neurons assessed as reduction in C2 ceramide-induced cell death measured as cell survival at 10 uM for 2 hrs followed by challenged with C2 ceramide for 24 hrs by MTT assay in presence of PD98059 ERK1/2 inhibitor (reference value: 100.2 +/- 1.7%). Type of data set: functional, Cortical neurone.
Data set [10] can be described thus: Cytotoxicity against Sprague-Dawley rat cortical neurons at 10 uM for 24 hrs by MTT assay. The conditions noted are these: cortical neurone.

On to `Cc1cc2c(o1)c(-c1ccc(C(=O)O)cc1)nn2Cc1ccccc1`, for which, in [1], the outcome was inactive.
For the molecule `Cc1cc2c(o1)c(-c1ccc(CO)cc1)nn2-c1ccccc1`, the result in data set [1] and in data set [7] was Active. For the same molecule, the Activity is 75.6% in data set [2]; 81.5% in data set [3]; 90.1% in data set [4]; 100.2% in data set [5]; 71.9% in [8]; 70.3% in data set [9]. The Activity result in data set [10] is recorded as “Non-toxic”. Moreover, the outcome in data set [6] was inactive.
With `Cc1cc2c(o1)c(-c1ccc(C(=O)O)cc1)nn2-c1ccccc1`, the result in data set [1] was inactive.
